According to ChEMBL document CHEMBL5370574, “Discovery and Characterization of Moracin C as an Anti-Gouty Arthritis/Hyperuricemia Candidate by Docking-Based Virtual Screening and Pharmacological Evaluation” (J Nat Prod, 2023):
One block for each molecule: values may come before it. Calls of active or inactive are those of the source. The rule behind the calls is not given here.

What was measured:
[1] = target: T1, Xanthine dehydrogenase/oxidase (Homo sapiens, UniProt P47989); assay: Inhibition of XOD (unknown origin) using xanthine as substrate at 1 uM preincubated for 30 mins followed by xanthine addition measured after 30 mins by microplate reader relative to control; details: 0.5 h, time 60 min
[2] = target: T1, Xanthine dehydrogenase/oxidase; assay: Inhibition of XOD (unknown origin) using xanthine as substrate preincubated for 30 mins followed by xanthine addition measured after 30 mins by microplate reader
Rattus norvegicus [3] = assay: Antiarthritic activity against MSU-induced Sprague-Dawley rat OA model assessed as inflammation index at 10 mg/kg, ig administered for 3 days; format: functional; details: time 3 day
Mus musculus [4] = assay: Hypouricemic activity in hypoxanthine/potassium oxonate-induced hyperuricemic Kunming mouse model assessed as decrease in serum uric acid level at 5 to 20 mg/kg, po administered for 7 days measured 4 hrs post last dose by biochemical analyzer; format: functional, organism-based; details: dose 5-20 mg/kg, time 7.0 day
Mus musculus [5] = assay: Hypouricemic activity in hypoxanthine/potassium oxonate-induced hyperuricemic Kunming mouse model assessed as decrease in uric acid level in urine at 5 to 20 mg/kg, po administered for 7 days measured 4 hrs post last dose by automatic biochemical analyzer; format: functional, organism-based; details: dose 5-20 mg/kg, time 7.0 day
Mus musculus [6] = assay: Hypouricemic activity in hypoxanthine/potassium oxonate-induced hyperuricemic Kunming mouse model assessed as decrease in serum XOD level at 5 to 20 mg/kg, po administered for 7 days measured 4 hrs post last dose by automatic biochemical analyzer; format: functional, organism-based; details: dose 5-20 mg/kg, time 7.0 day
Mus musculus [7] = assay: Hypouricemic activity in hypoxanthine/potassium oxonate-induced hyperuricemic Kunming mouse model assessed as decrease in liver XOD level at 5 to 20 mg/kg, po administered for 7 days measured 4 hrs post last dose by automatic biochemical analyzer; format: functional, organism-based; details: dose 5-20 mg/kg, time 7.0 day
RAW264.7 [8] = assay: Antiinflammatory activity in MSU-induced mouse RAW264.7 cells assessed as decrease in TNF-alpha expression preincubated for 2 hrs followed by MSU stimulation and measured after 12 hrs by ELISA; format: functional, cell-based; details: dose 1-10 µM, time 14.0 hrs
RAW264.7 [9] = assay: Antiinflammatory activity in MSU-induced mouse RAW264.7 cells assessed as decrease in IL-1beta expression preincubated for 2 hrs followed by MSU stimulation and measured after 12 hrs by ELISA; format: functional, cell-based; details: dose 1-10 µM, time 14.0 hrs
RAW264.7 [10] = assay: Antiinflammatory activity in MSU-induced mouse RAW264.7 cells assessed as decrease in TNF-alpha mRNA expression at 1 to 10 uM preincubated for 2 hrs followed by MSU stimulation and measured after 12 hrs by qRT-PCR analysis; format: functional, cell-based; details: dose 1-10 µM, time 14.0 hrs
RAW264.7 [11] = assay: Antiinflammatory activity in MSU-induced mouse RAW264.7 cells assessed as decrease in IL-1beta mRNA expression at 1 to 10 uM preincubated for 2 hrs followed by MSU stimulation and measured after 12 hrs by qRT-PCR analysis; format: functional, cell-based; details: dose 1-10 µM, time 14.0 hrs
Rattus norvegicus [12] = assay: Antiarthritic activity against MSU-induced Sprague-Dawley rat OA model assessed as reduction of serum TNF-alpha protein expression level at 5 to 20 mg/kg, ig administered for 3 days by ELISA; format: functional, organism-based; details: dose 5-20 mg/kg, time 3.0 day
Rattus norvegicus [13] = assay: Antiarthritic activity against MSU-induced Sprague-Dawley rat OA model assessed as reduction of serum IL-1beta protein expression level at 5 to 20 mg/kg, ig administered for 3 days by ELISA; format: functional, organism-based; details: dose 5-20 mg/kg, time 3.0 day
Rattus norvegicus [14] = assay: Antiarthritic activity against MSU-induced Sprague-Dawley rat OA model assessed as reduction of serum IL-1beta protein expression level at 10 mg/kg, ig administered for 3 days by ELISA; format: functional, organism-based; details: time 3.0 day
Rattus norvegicus [15] = assay: Antiarthritic activity against MSU-induced Sprague-Dawley rat OA model assessed as inflammation index at 5 mg/kg, ig administered for 3 days; format: functional; details: time 3 day
Rattus norvegicus [16] = assay: Antiarthritic activity against MSU-induced Sprague-Dawley rat OA model assessed as dysfunction index at 5 mg/kg, ig administered for 3 days; format: functional; details: time 3 day
Rattus norvegicus [17] = assay: Antiarthritic activity against MSU-induced Sprague-Dawley rat OA model assessed as toe swelling volume variation at 5 mg/kg, ig administered for 3 days; format: functional; details: time 3 day
Rattus norvegicus [18] = assay: Antiarthritic activity against MSU-induced Sprague-Dawley rat OA model assessed as dysfunction index at 10 mg/kg, ig administered for 3 days; format: functional; details: time 3 day
Rattus norvegicus [19] = assay: Antiarthritic activity against MSU-induced Sprague-Dawley rat OA model assessed as toe swelling volume variation at 10 mg/kg, ig administered for 3 days; format: functional; details: time 3 day
Rattus norvegicus [20] = assay: Antiarthritic activity against MSU-induced Sprague-Dawley rat OA model assessed as inflammation index at 20 mg/kg, ig administered for 3 days; format: functional; details: time 3 day
Rattus norvegicus [21] = assay: Antiarthritic activity against MSU-induced Sprague-Dawley rat OA model assessed as dysfunction index at 20 mg/kg, ig administered for 3 days; format: functional; details: time 3 day
Rattus norvegicus [22] = assay: Antiarthritic activity against MSU-induced Sprague-Dawley rat OA model assessed as toe swelling volume variation at 20 mg/kg, ig administered for 3 days; format: functional; details: time 3 day
Rattus norvegicus [23] = assay: Antiarthritic activity against MSU-induced Sprague-Dawley rat OA model assessed as dysfunction index at 1 mg/kg, ig administered for 3 days; format: functional, organism-based; details: time 3.0 day
Rattus norvegicus [24] = assay: Antiarthritic activity against MSU-induced Sprague-Dawley rat OA model assessed as toe swelling volume variation at 1 mg/kg, ig administered for 3 days; format: functional, organism-based; details: time 3.0 day
Rattus norvegicus [25] = assay: Antiarthritic activity against MSU-induced Sprague-Dawley rat OA model assessed as reduction in NLRP3 mRNA expression level in tissue joint at 5 to 20 mg/kg, ig administered for 3 days by qRT-PCR analysis; format: functional, organism-based; details: dose 5-20 mg/kg, time 3.0 day
Rattus norvegicus [26] = assay: Antiarthritic activity against MSU-induced Sprague-Dawley rat OA model assessed as reduction in ASC mRNA expression level in tissue joint at 5 to 20 mg/kg, ig administered for 3 days by qRT-PCR analysis; format: functional, organism-based; details: dose 5-20 mg/kg, time 3.0 day
Rattus norvegicus [27] = assay: Antiarthritic activity against MSU-induced Sprague-Dawley rat OA model assessed as reduction in caspase-1 mRNA expression level in tissue joint at 5 to 20 mg/kg, ig administered for 3 days by qRT-PCR analysis; format: functional, organism-based; details: dose 5-20 mg/kg, time 3.0 day
Rattus norvegicus [28] = assay: Antiarthritic activity against MSU-induced Sprague-Dawley rat OA model assessed as inflammation index at 1 mg/kg, ig administered for 3 days; format: functional, organism-based; details: time 3.0 day
[29] = target: T2, Solute carrier family 2, facilitated glucose transporter member 9 (Homo sapiens) (UniProt Q9NRM0); assay: Inhibition of GLUT9 (unknown origin) expressed in HEK293T cells assessed as effect on uric acid induced current at 10 uM; format: cell-based
T2 sequence (whole entry): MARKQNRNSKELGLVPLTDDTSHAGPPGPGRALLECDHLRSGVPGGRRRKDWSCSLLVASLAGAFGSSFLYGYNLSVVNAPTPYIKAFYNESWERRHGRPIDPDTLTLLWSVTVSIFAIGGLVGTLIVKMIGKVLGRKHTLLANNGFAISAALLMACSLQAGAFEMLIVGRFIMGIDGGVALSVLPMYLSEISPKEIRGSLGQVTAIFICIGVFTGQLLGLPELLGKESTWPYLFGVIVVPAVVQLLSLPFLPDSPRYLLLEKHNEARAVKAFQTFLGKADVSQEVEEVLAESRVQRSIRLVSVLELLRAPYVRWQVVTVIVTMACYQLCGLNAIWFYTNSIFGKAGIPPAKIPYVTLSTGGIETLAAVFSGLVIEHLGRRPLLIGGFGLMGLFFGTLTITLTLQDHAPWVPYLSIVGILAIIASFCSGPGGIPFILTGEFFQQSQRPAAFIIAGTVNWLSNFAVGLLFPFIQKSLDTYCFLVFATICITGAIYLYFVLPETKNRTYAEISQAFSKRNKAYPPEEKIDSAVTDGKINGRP

[30] = target: T3, Solute carrier family 22 member 12 (Homo sapiens, UniProt Q96S37); assay: Inhibition of URAT1 (unknown origin) expressed in HEK293T cells assessed as reduction in 14C-uric acid uptake at 10 uM; format: cell-based
T3 sequence (Q96S37 whole entry): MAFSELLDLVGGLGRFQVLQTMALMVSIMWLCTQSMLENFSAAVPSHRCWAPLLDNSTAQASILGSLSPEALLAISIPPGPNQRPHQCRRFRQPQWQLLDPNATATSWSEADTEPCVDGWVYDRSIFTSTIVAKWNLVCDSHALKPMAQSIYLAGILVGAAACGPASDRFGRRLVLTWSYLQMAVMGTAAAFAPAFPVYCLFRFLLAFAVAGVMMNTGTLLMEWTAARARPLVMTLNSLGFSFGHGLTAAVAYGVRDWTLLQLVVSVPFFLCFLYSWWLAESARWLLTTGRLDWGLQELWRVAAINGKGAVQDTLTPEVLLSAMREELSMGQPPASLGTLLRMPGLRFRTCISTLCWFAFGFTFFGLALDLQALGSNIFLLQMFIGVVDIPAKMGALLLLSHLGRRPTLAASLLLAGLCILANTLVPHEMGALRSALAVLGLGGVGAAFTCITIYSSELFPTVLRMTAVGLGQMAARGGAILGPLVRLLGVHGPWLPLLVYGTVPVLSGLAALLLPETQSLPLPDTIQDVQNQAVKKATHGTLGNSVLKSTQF

[31] = target: T1, Xanthine dehydrogenase/oxidase; assay: Inhibition of XOD (unknown origin)
[32] = target: T3, Solute carrier family 22 member 12; assay: Inhibition of URAT1(unknown origin)

T1 sequence (P47989 whole entry): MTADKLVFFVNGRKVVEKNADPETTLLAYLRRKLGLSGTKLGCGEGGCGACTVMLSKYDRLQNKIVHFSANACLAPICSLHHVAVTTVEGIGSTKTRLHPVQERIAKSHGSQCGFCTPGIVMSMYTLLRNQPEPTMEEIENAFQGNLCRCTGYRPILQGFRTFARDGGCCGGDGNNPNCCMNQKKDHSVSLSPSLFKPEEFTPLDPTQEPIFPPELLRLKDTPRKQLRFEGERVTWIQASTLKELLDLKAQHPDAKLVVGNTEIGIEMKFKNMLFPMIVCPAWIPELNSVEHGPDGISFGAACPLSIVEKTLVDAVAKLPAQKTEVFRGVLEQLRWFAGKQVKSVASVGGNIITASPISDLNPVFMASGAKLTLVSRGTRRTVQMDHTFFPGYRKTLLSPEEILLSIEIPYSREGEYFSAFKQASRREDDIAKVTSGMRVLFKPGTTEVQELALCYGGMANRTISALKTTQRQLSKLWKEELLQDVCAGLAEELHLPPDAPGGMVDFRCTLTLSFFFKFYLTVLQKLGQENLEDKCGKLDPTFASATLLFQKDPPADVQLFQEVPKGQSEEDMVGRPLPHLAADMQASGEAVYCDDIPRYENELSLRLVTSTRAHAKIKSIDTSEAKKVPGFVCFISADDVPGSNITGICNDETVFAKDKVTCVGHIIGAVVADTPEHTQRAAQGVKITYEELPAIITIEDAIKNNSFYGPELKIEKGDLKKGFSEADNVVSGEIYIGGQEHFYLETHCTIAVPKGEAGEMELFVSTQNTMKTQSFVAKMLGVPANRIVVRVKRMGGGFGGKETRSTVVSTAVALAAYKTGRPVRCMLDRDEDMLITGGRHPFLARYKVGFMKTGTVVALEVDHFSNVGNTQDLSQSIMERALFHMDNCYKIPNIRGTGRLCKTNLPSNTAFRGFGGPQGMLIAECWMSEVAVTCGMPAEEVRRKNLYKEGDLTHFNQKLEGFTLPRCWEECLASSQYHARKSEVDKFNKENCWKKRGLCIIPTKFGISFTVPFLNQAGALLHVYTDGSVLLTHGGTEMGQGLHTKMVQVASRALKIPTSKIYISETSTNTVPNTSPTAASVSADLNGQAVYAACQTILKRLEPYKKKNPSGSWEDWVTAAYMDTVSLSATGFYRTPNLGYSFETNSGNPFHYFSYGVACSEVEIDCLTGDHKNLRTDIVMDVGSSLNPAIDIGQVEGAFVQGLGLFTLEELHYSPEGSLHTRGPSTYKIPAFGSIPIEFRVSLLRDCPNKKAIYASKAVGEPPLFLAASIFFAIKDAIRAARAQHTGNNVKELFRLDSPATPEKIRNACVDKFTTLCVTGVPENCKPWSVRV

Structure (SMILES): COc1ccc2c(=O)c(-c3ccc(O)cc3)coc2c1 [ISOFORMONENTIN]
inhibition at 1 µM [1]: 25% | IC50 [2]: 13 µM

Structure (SMILES): CC(C)=CCc1c(O)cc(-c2cc3ccc(O)cc3o2)cc1O [MORACIN C]
Activity_index (Rattus norvegicus [3]): 1 | inhibition at 1 µM [1]: 70% | IC50 [2]: 0.25 µM | Activity (Mus musculus [4]): Active | Activity (Mus musculus [5]): inactive | Activity (Mus musculus [6]): Active | Activity (Mus musculus [7]): Active | Activity (RAW264.7 [8]): Dose-Dependent Effect | Activity (RAW264.7 [9]): Dose-Dependent Effect | Activity (RAW264.7 [10]): Active | Activity (RAW264.7 [11]): Active | Activity (Rattus norvegicus [12]): Active | Activity (Rattus norvegicus [13]): Active | Activity (Rattus norvegicus [14]): Active | Activity_index (Rattus norvegicus [15]): 1 | Activity_index (Rattus norvegicus [16]): 0 | Activity (Rattus norvegicus [17]): 0.16 mL | Activity_index (Rattus norvegicus [18]): 0 | Activity (Rattus norvegicus [19]): 0.1 mL | Activity_index (Rattus norvegicus [20]): 0.6 | Activity_index (Rattus norvegicus [21]): 0 | Activity (Rattus norvegicus [22]): 0.06 mL | Activity (Rattus norvegicus [23]): Active | Activity (Rattus norvegicus [24]): Active | Activity (Rattus norvegicus [25]): Active | Activity (Rattus norvegicus [26]): Active | Activity (Rattus norvegicus [27]): Active | Activity (Rattus norvegicus [28]): Active | inhibition [29]: inactive | inhibition (INH) [30]: Not Active

Structure (SMILES): CC1(C)C=Cc2c(O)cc(-c3cc4ccc(O)cc4o3)cc2O1 [MORACIN D]
inhibition at 1 µM [1]: 32% | IC50 [2]: 5.1 µM

Further lines, results first:

IC50 [31]: 25 µM | Ki [32]: 2 µM
Structure (SMILES): O=c1c(O)c(-c2ccc(O)cc2O)oc2cc(O)cc(O)c12 [MORIN]

inhibition at 1 µM [1]: < 20%
Structure (SMILES): CC1(C)C=Cc2c(ccc3c2O[C@H]2c4ccc(O)cc4OC[C@@H]32)O1 [PHASEOLIN]

inhibition at 1 µM [1]: < 20%
Structure (SMILES): COc1ccc(-c2cc(=O)c3c(O)c(OC)c(OC)cc3o2)cc1 [SALVIGENIN]
